Where a name gives a salt, the structure may show the parent alone. Read-outs that look alike come from different tables or passages of the source.
Legend:
[1] = target: T1, cloned human H3 receptors (Homo sapiens, UniProt Q9Y5N1); experiment: H3 Receptor Binding (Human)
T1 construct: expressed in transfected cells
Method: H3 Receptor Binding (Human)
Binding of compounds to the cloned human H3 receptors, stably expressed in SK-N-MC cells, was performed as described by Barbier, A. J. et al. (Br. J. Pharmacol. 2004, 143(5), 649-661).

Rat H3 = Rat H3 (Rattus norvegicus, UniProt Q9QYN8); experiment: H3 Receptor Binding (Rat); conditions: rat brain membranes without cerebellum, 0.8 nM N-[3H]-α-methylhistamine, 60 min at 25° C.; average of the results obtained
Sequence of Rat H3 (Q9QYN8 1-397 isoform Q9QYN8-3): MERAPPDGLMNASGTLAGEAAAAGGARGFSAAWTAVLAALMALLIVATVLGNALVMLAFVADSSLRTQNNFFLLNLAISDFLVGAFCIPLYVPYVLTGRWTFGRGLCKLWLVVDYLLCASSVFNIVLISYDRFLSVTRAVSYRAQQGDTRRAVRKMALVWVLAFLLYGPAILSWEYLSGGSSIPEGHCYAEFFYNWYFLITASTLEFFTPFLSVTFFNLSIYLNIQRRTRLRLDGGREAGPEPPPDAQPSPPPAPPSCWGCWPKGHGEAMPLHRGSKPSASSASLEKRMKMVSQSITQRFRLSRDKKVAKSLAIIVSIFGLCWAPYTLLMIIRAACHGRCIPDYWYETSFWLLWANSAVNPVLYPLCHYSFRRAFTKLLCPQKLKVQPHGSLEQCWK
Method: H3 Receptor Binding (Rat)
A rat brain without cerebellum (Zivic Laboratories Inc., Pittsburgh, Pa.) was homogenized in 50 mM Tris-HCl/5 mM EDTA and centrifuged at 1,000 rpm for 5 min. The supernatant was removed and recentrifuged at 15,000 rpm for 30 min. Pellets were rehomogenized in 50 mM Tris/5 mM EDTA (pH 7.4). Membranes were incubated with 0.8 nM N-[^3H]-α-methylhistamine plus/minus test compounds for 60 min at 25° C. and harvested by rapid filtration over GF/C glass fiber filters (pretreated with 0.3% polyethylenimine) followed by four washes with buffer. Nonspecific binding was defined in the presence of 100 μM histamine.

human H3 receptor = target: T2, human H3 receptor (Homo sapiens, UniProt Q9Y5N1); experiment: Cyclic AMP Accumulation (human H3 receptor); assay type: cell-based
T2 construct: expressed in transfected cells; host or cells: SK-N-MC sublines with a reporter construct
T2 sequence (Q9Y5N1 whole entry): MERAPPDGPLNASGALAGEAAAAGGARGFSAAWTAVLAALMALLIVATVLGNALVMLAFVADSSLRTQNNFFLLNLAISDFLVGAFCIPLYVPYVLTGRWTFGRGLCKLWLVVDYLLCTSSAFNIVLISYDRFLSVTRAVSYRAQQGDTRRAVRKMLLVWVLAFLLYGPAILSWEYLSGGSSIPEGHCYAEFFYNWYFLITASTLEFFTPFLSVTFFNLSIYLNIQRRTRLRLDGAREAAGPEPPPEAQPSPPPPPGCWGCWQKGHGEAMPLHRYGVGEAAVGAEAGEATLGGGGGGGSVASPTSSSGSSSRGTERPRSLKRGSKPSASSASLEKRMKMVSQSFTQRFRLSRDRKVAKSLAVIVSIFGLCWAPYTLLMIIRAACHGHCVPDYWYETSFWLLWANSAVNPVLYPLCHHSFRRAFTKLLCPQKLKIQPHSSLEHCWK
Source text: Sublines of SK-N-MC cells were created that expressed a reporter construct and either the human or rat H3 receptor.

[2] = cloned human H3 receptors stably expressed in SK-N-MC cells, average of the results obtained, read-out: Human H3 Ki
[3] = bromo-pyridine intermediates (Step A), value given in the synthesis, read-out: Assay 1 (Human H3): Ki

T1 sequence (Q9Y5N1 whole entry): as above

With `O=C(c1ccc(Oc2cccc(Cl)c2)nc1)N1CCCN(C2CC2)CC1` [Example 23, [6-(3-Chloro-phenoxy)-pyridin-3-yl]-(4-cyclopropyl-[1,4]diazepan-1-yl)-methanone] the Ki [1, 2] was 3 nM and the Ki (Rat H3) was 70 nM.
`Cc1cc(Oc2ccc(C(=O)N3CCCN(C4CC4)CC3)nc2C#N)ccc1Cl` [Example 57, 3-(4-Chloro-3-methyl-phenoxy)-6-(4-cyclopropyl-[1,4]diazepane-1-carbonyl)-pyridine-2-carbonitrile] gave a Ki [1, 2] of 3 nM and a Ki (Rat H3) of 132 nM.
Work on `O=C(c1ccc(Oc2ccc(F)cc2)nc1)N1CCCN(C2CC2)CC1` [Example 18, (4-Cyclopropyl-[1,4]diazepan-1-yl)-[6-(4-fluoro-phenoxy)-pyridin-3-yl]-methanone] yielded a Ki [1, 2] of 2 nM and a Ki (Rat H3) of 68 nM.
Compound `O=C(c1ccc(Oc2ccccc2)nc1)N1CCCN(C2CC2)CC1` [Example 13, (4-Cyclopropyl-[1,4]diazepan-1-yl)-(6-phenoxy-pyridin-3-yl)-methanone] has a Ki [1, 2] of 6 nM and a Ki (Rat H3) of 54 nM.
Compound `O=C(c1ccc(Oc2ccccc2)nc1)N1CCCN(C2CCC2)CC1` [Example 21, (4-Cyclobutyl-[1,4]diazepan-1-yl)-(6-phenoxy-pyridin-3-yl)-methanone] has a Ki [1, 2] of 2 nM and a Ki (Rat H3) of 16 nM.
Work on `N#Cc1cccc(Oc2ccc(C(=O)N3CCCN(C4CCC4)CC3)cn2)c1` [Example 20, 3-[5-(4-Cyclobutyl-[1,4]diazepane-1-carbonyl)-pyridin-2-yloxy]-benzonitrile] yielded a Ki [1, 2] of 1 nM and a Ki (Rat H3) of 17 nM.
For `CSc1ccc(Oc2ccc(C(=O)N3CCCN(C4CCC4)CC3)cn2)cc1` [Example 105, (4-Cyclobutyl-[1,4]diazepan-1-yl)-[6-(4-methylsulfanyl-phenoxy)-pyridin-3-yl]-methanone], the Ki [1, 2] was 11 nM and the Ki (Rat H3) was 32 nM.
`O=C(c1ccc(Oc2ccc(Cl)c(Cl)c2)cn1)N1CCCN(C2CC2)CC1` [Example 52, (4-Cyclopropyl-[1,4]diazepan-1-yl)-[5-(3,4-dichloro-phenoxy)-pyridin-2-yl]-methanone trifluoroacetic acid salt] was tested, and the Ki [1, 2] was 4 nM and the Ki (Rat H3) was 110 nM.
`O=C(c1ccc(Oc2cc(F)cc(F)c2)nc1)N1CCCN(C2CCC2)CC1` [Example 36, (4-Cyclobutyl-[1,4]diazepan-1-yl)-[6-(3,5-difluoro-phenoxy)-pyridin-3-yl]-methanone] showed a Ki [1, 2] of 1 nM and a Ki (Rat H3) of 30 nM.
`Cc1cc(Oc2ccc(C(=O)N3CCCN(C4CC4)CC3)cn2)ccc1Cl` [Example 12, [6-(4-Chloro-3-methyl-phenoxy)-pyridin-3-yl]-(4-cyclopropyl-[1,4]diazepan-1-yl)-methanone] gave a Ki [1, 2] of 5 nM, a Ki (Rat H3) of 51 nM and a Kb (human H3 receptor) of 5.5 nM.
Work on `CC(C)N1CCN(C(=O)c2cccc(Oc3ccc(Cl)c(Cl)c3)n2)CC1` [Example 43, [6-(3,4-Dichloro-phenoxy)-pyridin-2-yl]-(4-isopropyl-piperazin-1-yl)-methanone] yielded a Ki [1, 2] of 299 nM.
`CC(C)N1CCN(C(=O)c2cccc(Br)n2)CC1` [(6-Bromo-pyridin-2-yl)-(4-isopropyl-piperazin-1-yl)-methanone] gave a Ki [1, 3] of 1400 nM.
Work on `O=C(c1ccc(Oc2ccc(F)cc2F)nc1)N1CCCN(C2CC2)CC1` [Example 32, (4-Cyclopropyl-[1,4]diazepan-1-yl)-[6-(2,4-difluoro-phenoxy)-pyridin-3-yl]-methanone] yielded a Ki [1, 2] of 4 nM and a Ki (Rat H3) of 92 nM.
`CC(C)N1CCN(C(=O)c2ccc(Oc3ccc(Cl)c(Cl)c3)nc2)CC1` [Example 1, [6-(3,4-Dichloro-phenoxy)-pyridin-3-yl]-(4-isopropyl-piperazin-1-yl)-methanone] showed a Ki [1, 2] of 29 nM.
In the case of `CC(C)N1CCCN(C(=O)c2ccc(Br)cn2)CC1` [(5-Bromo-pyridin-2-yl)-(4-isopropyl-[1,4]diazepan-1-yl)-methanone], the Ki [1, 3] is reported as 194 nM.
In the case of `CC(C)N1CCN(C(=O)c2ccc(Oc3ccccc3Cl)nc2)CC1` [Example 75, [6-(2-Chloro-phenoxy)-pyridin-3-yl]-(4-isopropyl-piperazin-1-yl)-methanone], the Ki [1, 2] is reported as 9 nM.
Compound `CN1CCCN(C(=O)c2ccc(Oc3ccc(F)cc3)nc2)CC1` [Example 80, [6-(4-Fluoro-phenoxy)-pyridin-3-yl]-(4-methyl-[1,4]diazepan-1-yl)-methanone] has a Ki [1, 2] of 253 nM.
Compound `O=C(c1ccc(Oc2ccc(F)c(F)c2)nc1)N1CCCN(C2CC2)CC1` [Example 27, (4-Cyclopropyl-[1,4]diazepan-1-yl)-[6-(3,4-difluoro-phenoxy)-pyridin-3-yl]-methanone] has a Ki [1, 2] of 4 nM and a Ki (Rat H3) of 86 nM.
`O=C(c1ccc(Oc2cccc(F)c2)nc1)N1CCCN(C2CC2)CC1` [Example 37, (4-Cyclopropyl-[1,4]diazepan-1-yl)-[6-(3-fluoro-phenoxy)-pyridin-3-yl]-methanone] was tested, and the Ki [1, 2] was 5 nM and the Ki (Rat H3) was 130 nM.
`NC(=O)c1nc(C(=O)N2CCCN(C3CC3)CC2)ccc1Oc1cccnc1` [Example 63, 6-(4-Cyclopropyl-[1,4]diazepane-1-carbonyl)-3-(pyridin-3-yloxy)-pyridine-2-carboxylic acid amide] was tested, and the Ki [1, 2] was 32 nM.
`O=C(c1ccc(Oc2ccccc2F)cn1)N1CCCN(C2CCC2)CC1` [Example 72, (4-Cyclobutyl-[1,4]diazepan-1-yl)-[5-(2-fluoro-phenoxy)-pyridin-2-yl]-methanone] was tested, and the Ki [1, 2] was 2 nM.
In the case of `CC(C)N1CCN(C(=O)c2ccc(Oc3cccc(C#N)c3)nc2)CC1` [Example 7, 3-[5-(4-Isopropyl-piperazine-1-carbonyl)-pyridin-2-yloxy]-benzonitrile], the Ki [1, 2] is reported as 57 nM.
For `CSc1ccc(Oc2ccc(C(=O)N3CCCN(C4CC4)CC3)nc2C(N)=O)cc1` [Example 62, 6-(4-Cyclopropyl-[1,4]diazepane-1-carbonyl)-3-(4-methylsulfanyl-phenoxy)-pyridine-2-carboxylic acid amide], the Ki [1, 2] was 36 nM.
Compound `O=C(c1ccc(Sc2ccc(F)cc2)cn1)N1CCCN(C2CCC2)CC1` [Example 84, (4-Cyclobutyl-[1,4]diazepan-1-yl)-[5-(4-fluoro-phenylsulfanyl)-pyridin-2-yl]-methanone trifluoroacetic acid salt] has a Ki [1, 2] of 2 nM and a Ki (Rat H3) of 37 nM.
`O=C(c1ccc(Oc2ccccc2F)nc1)N1CCN(C2CCCC2)CC1` [Example 78] was tested, and the Ki [1, 2] was 24 nM.
`O=C(c1cccc(Oc2ccc(Cl)c(Cl)c2)n1)N1CCCN(C2CC2)CC1` [Example 44, (4-Cyclopropyl-[1,4]diazepan-1-yl)-[6-(3,4-dichloro-phenoxy)-pyridin-2-yl]-methanone] gave a Ki [1, 2] of 327 nM.
`O=C(c1ccc(Sc2ccc(F)cc2)nc1)N1CCCN(C2CCC2)CC1` [Example 97, (4-Cyclobutyl-[1,4]diazepan-1-yl)-[6-(4-fluoro-phenylsulfanyl)-pyridin-3-yl]-methanone] showed a Ki [1, 2] of 1 nM.
With `Cc1cc(Oc2cccc(C(=O)N3CCCN(C(C)C)CC3)n2)ccc1Cl` [Example 49, [6-(4-Chloro-3-methyl-phenoxy)-Pyridin-2-yl]-(4-isopropyl-[1,4]diazepan-1-yl)-methanone trifluoroacetic acid salt] the Ki [1, 2] was 115 nM.
`CSc1ccc(Oc2ccc(C(=O)N3CCCN(C4CC4)CC3)cn2)cc1C` [Example 41, (4-Cyclopropyl-[1,4]diazepan-1-yl)-[6-(3-methyl-4-methylsulfanyl-phenoxy)-pyridin-3-yl]-methanone] showed a Ki [1, 2] of 4 nM and a Ki (Rat H3) of 75 nM.
With `CC(C)N1CCN(C(=O)c2ccc(Oc3ccc(F)c(F)c3)nc2)CC1` [Example 28, [6-(3,4-Difluoro-phenoxy)-pyridin-3-yl]-(4-isopropyl-piperazin-1-yl)-methanone] the Ki [1, 2] was 13 nM.
With `Cc1cc(Oc2cccc(C(=O)N3CCCN(C4CCC4)CC3)n2)ccc1Cl` [Example 48, [6-(4-Chloro-3-methyl-phenoxy)-pyridin-2-yl]-(4-cyclobutyl-[1,4]diazepan-1-yl)-methanone trifluoroacetic acid salt] the Ki [1, 2] was 67 nM.
`CC(C)N1CCN(C(=O)c2ccc(Oc3ccc(Cl)c(Cl)c3)c(CN)n2)CC1` [Example 64, [6-Aminomethyl-5-(3,4-dichloro-phenoxy)-pyridin-2-yl]-(4-isopropyl-piperazin-1-yl)-methanone trifluoroacetic acid salt] showed a Ki [1, 2] of 165 nM.
`O=C(c1ccc(Oc2cccc(F)c2)cn1)N1CCCN(C2CCC2)CC1` [Example 71, (4-Cyclobutyl-[1,4]diazepan-1-yl)-[5-(3-fluoro-phenoxy)-pyridin-2-yl]-methanone trifluoroacetic acid salt] was tested, and the Ki [1, 2] was 2 nM.
`Cc1cc(Oc2ccc(C(=O)N3CCN(C(C)C)CC3)cn2)ccc1Cl` [Example 6, [6-(4-Chloro-3-methyl-phenoxy)-pyridin-3-yl]-(4-isopropyl-piperazin-1-yl)-methanone] showed a Ki [1, 2] of 32 nM.
`O=C(c1cccc(Br)n1)N1CCCN(C2CCC2)CC1` [(6-Bromo-pyridin-2-yl)-(4-cyclobutyl-[1,4]diazepan-1-yl)-methanone] showed a Ki [1, 3] of 33 nM.
`CC(C)N1CCN(C(=O)c2ccc(Oc3ccc(Cl)cc3)nc2)CC1` [Example 8, [6-(4-Chloro-phenoxy)-pyridin-3-yl]-(4-isopropyl-piperazin-1-yl)-methanone] showed a Ki [1, 2] of 68 nM.
